Test results from PMC11022729 (Advanced Science, 2024).

How the values were obtained:
[1] = target: T1, serotonin 5-HT2A receptor (Homo sapiens, UniProt P28223); assay: SafetyScreen44 panel; type: binding
T1 construct: purchased Eurofins Cerep P270
Method: (§1) Measurements were performed in duplicate.
(§2) channel, which were obtainedfrom ratspecimens).
(§3) in brackets) specific for each target.

[2] = target: T2, serotonin 5-HT2B receptor (Homo sapiens, UniProt P41595); assay: SafetyScreen44 panel; type: binding
T2 construct: purchased Eurofins Cerep P270
T2 sequence (P41595 whole entry): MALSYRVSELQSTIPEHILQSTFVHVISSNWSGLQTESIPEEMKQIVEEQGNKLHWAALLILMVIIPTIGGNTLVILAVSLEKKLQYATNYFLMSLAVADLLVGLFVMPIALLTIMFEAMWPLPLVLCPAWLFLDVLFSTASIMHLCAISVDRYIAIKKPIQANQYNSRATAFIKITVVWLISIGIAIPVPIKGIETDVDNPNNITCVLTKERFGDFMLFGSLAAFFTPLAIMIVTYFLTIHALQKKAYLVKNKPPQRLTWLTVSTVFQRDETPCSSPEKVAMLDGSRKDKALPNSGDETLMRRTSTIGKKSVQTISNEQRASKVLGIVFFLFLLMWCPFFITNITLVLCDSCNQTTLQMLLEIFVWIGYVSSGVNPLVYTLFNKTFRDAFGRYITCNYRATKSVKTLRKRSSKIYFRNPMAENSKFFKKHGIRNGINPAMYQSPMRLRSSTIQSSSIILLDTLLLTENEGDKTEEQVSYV
Method: as §1, §2, §3

[3] = target: T3, dopamine D2S receptor (Homo sapiens, UniProt P14416); assay: SafetyScreen44 panel; type: binding
T3 construct: purchased Eurofins Cerep P270
T3 sequence (P14416 1-414 isoform P14416-2): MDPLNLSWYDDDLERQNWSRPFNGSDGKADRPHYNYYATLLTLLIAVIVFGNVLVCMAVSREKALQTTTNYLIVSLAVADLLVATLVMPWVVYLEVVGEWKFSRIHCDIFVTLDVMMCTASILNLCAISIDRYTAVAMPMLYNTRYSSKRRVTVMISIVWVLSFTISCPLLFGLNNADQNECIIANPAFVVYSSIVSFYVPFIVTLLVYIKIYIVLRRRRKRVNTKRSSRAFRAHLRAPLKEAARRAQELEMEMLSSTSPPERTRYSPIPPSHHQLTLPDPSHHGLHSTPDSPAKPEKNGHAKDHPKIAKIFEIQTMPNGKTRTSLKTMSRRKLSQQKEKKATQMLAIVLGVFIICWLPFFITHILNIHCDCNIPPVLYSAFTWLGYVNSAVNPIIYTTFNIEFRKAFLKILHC
Method: as §1, §2, §3

[4] = target: T4, dopamine D1 receptor (Homo sapiens, UniProt P21728); assay: SafetyScreen44 panel; type: binding
T4 construct: purchased Eurofins Cerep P270
T4 sequence (P21728 whole entry): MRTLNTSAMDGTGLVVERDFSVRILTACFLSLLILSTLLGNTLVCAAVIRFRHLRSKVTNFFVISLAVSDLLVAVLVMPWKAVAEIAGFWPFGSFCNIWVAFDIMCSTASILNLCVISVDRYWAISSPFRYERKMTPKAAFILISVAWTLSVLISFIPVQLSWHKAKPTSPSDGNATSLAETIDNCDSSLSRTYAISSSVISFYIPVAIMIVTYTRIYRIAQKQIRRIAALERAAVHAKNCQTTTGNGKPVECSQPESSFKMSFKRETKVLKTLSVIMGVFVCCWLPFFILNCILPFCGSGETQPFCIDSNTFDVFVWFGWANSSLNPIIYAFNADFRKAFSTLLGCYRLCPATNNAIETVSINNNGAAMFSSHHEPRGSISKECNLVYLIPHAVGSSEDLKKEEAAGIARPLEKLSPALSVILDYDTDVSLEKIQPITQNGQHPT
Method: as §1, §2, §3

[5] = target: T5, serotonin transporter (SET) (Homo sapiens, UniProt P31645); assay: SafetyScreen44 panel; type: binding
T5 construct: purchased Eurofins Cerep P270
T5 sequence (P31645 whole entry): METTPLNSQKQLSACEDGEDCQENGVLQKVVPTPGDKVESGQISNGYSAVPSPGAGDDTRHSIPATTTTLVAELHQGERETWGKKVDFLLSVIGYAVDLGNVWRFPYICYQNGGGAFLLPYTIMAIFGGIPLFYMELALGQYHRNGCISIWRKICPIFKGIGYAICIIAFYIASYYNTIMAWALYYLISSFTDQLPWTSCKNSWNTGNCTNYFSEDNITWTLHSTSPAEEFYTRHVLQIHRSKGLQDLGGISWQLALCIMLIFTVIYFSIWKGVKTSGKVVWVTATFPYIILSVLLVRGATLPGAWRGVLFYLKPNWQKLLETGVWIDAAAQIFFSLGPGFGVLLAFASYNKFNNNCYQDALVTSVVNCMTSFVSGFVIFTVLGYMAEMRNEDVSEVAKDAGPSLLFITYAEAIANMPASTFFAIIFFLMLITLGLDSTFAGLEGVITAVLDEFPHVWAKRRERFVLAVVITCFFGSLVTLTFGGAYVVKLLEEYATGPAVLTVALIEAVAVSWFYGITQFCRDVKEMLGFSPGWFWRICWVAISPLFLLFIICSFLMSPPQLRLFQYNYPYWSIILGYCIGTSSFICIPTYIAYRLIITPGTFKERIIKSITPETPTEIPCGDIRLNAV
Method: as §1, §2, §3

[6] = target: T6, norepinephrine transporter (NET) (Homo sapiens, UniProt P23975); assay: SafetyScreen44 panel; type: binding
T6 construct: purchased Eurofins Cerep P270
T6 sequence (P23975 whole entry): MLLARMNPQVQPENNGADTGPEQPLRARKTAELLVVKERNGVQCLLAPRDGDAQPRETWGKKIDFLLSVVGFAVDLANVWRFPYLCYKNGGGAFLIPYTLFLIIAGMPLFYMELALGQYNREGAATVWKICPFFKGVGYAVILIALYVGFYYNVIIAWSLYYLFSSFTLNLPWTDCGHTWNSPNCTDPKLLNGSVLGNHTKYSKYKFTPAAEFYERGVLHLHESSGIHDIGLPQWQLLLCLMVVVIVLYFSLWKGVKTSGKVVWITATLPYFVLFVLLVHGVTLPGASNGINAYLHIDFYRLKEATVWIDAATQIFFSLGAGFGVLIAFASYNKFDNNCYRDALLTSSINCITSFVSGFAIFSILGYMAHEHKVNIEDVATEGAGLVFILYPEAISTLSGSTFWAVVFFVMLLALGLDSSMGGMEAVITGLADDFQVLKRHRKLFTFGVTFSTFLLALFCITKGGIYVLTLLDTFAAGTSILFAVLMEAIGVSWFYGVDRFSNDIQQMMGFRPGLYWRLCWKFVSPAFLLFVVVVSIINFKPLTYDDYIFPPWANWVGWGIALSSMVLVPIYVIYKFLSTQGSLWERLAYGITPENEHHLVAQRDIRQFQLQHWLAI
Method: as §1, §2, §3

[7] = target: T7, adrenergic α1A receptor (Homo sapiens, UniProt P35348); assay: SafetyScreen44 panel; type: binding
T7 construct: purchased Eurofins Cerep P270
T7 sequence (P35348 whole entry): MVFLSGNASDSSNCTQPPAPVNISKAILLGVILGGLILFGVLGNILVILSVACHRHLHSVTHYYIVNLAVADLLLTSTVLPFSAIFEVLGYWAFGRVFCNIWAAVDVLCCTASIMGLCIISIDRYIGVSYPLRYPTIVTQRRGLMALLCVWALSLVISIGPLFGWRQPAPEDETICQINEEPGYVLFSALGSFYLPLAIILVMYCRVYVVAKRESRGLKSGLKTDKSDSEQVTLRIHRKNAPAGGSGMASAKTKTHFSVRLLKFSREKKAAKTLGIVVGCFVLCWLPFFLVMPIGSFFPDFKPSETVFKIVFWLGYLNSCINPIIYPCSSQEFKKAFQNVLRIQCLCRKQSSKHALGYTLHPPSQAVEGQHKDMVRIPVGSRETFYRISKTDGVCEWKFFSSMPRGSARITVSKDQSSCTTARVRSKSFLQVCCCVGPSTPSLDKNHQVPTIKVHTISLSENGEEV
Method: as §1, §2, §3

[8] = system: mice; assay: Chloroquine-induced itch behavior, wildtype mice; type: in vivo, mouse
Method: We then assessed the antipruritic efficacy of compound 6 in a model of histamine‐independent itching induced by the antimalarial drug chloroquine.
Three to four days before the day of the experiment, the fur on the dorsolateral aspect of the neck was shaved under brief isoflurane anesthesia. On the testing day, the mice were habituated to a Plexiglas cylinder (30 cm in diameter) for 30 min. Compound 6 hydrochloride or vehicle were i.p. or p.o. administered, and 15 min later, the pruritogens chloroquine (200 µg), SLIGRL (100 µg), β‐alanine (100 µg), or histamine (800 µg), all dissolved in 0.9% saline (20 µL), were injected subcutaneously into the nape of the neck.^[ [29] ^] Number of scratching bouts directed toward the nape of the neck was assessed over 30 min by videotaping. In experiments with the Slack inhibitor, compound 31 (ref. [27]; 30 mg kg^−1 in 0.9% NaCl with 2% DMSO and 10% Kolliphor) was i.p. administered 5 min prior to compound 6.

[9] = target: T8, purified human Slack (Homo sapiens, UniProt Q5JUK3); assay: Differential scanning fluorimetry (DSF) on purified Slack; type: binding; conditions: 100 µM ligand concentration; for melting temperature Tm of Slack: Tm without ligand 30 °C
T8 construct: NM_02 0822.3, residues 1–1235; green fluorescent protein (GFP) (C, cleaved yes); twin strep-II-tag (C, cleaved yes); made in house; host or cells: HEK293F cells, transient transfection
T8 sequence (Q5JUK3 1-1235 isoform Q5JUK3-3): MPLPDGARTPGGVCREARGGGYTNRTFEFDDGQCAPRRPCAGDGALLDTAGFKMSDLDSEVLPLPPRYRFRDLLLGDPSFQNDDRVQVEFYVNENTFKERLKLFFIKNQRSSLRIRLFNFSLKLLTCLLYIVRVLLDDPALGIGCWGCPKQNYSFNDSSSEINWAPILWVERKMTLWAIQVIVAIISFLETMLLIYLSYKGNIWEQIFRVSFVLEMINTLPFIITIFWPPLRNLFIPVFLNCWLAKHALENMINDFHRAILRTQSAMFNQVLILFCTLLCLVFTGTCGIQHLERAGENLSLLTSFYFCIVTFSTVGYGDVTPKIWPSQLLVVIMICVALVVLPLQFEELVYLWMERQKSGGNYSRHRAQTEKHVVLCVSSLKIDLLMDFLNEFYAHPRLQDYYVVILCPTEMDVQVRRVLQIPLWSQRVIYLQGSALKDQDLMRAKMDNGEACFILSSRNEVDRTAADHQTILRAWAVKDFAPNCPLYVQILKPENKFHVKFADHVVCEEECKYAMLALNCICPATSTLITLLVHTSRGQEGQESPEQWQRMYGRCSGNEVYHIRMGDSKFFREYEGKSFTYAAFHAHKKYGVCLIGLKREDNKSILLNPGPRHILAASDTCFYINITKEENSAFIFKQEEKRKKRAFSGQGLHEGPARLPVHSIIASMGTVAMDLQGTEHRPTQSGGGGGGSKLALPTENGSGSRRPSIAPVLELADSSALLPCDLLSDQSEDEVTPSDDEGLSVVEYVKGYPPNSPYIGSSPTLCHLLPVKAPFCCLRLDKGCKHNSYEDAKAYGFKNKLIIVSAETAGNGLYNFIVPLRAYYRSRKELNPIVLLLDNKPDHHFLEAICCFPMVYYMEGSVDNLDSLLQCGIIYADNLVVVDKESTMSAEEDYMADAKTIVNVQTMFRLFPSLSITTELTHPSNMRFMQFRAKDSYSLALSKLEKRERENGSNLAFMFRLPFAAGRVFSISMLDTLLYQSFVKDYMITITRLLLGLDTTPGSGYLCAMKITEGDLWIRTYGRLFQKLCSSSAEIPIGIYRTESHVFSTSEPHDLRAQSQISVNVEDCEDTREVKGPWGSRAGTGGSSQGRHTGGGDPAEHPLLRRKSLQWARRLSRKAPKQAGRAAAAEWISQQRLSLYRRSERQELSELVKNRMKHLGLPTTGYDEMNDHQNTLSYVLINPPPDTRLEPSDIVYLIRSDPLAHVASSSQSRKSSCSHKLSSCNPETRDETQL
Method: To confirm that the cellular effect of compound 6 was mediated by its direct interaction with Slack, ligand binding on purified human Slack (Figure S6A, Supporting Information) was assessed by differential scanning fluorimetry (DSF), thereby evaluating a ligand‐dependent shift of the protein melting temperature (T m). The cysteine‐reacting dye 7‐diethylamino‐3‐(4‐maleimidophenyl)−4‐methylcoumarin (CPM), which binds to cysteine residues that are accessible during protein unfolding, was used as an indicator for protein unfolding. […] In the presence of a Slack inhibitor (compound 31 from ref. [27]), known to directly interact with the protein and therefore used as a positive control, T m saturated at 45.7 ± 3.2 °C at a ligand concentration of 100 µM (Figure S6B, Supporting Information), indicating a notable stabilization of Slack.
The melting temperature was determined from the fluorescence of 7‐diethylamino‐3‐(4‐maleimidophenyl)−4‐methylcoumarin (CPM) dye. […] Five microliters of the CPM dye (15 µg mL^−1 CPM final concentration) in the SEC buffer was added to the protein compound mixture and further incubated for 30 min on ice in the dark. The samples were centrifuged at 15 000 × g at 4 °C for 10 min to remove aggregates. Melting curves were recorded in an RT‐PCR (Thermo Fischer) using a temperature range of 10–80 °C in 1 °C‐increments, increasing every 75 s. The CPM dye was excited at a wavelength of 365 nm and the emission was measured at 470 nm.

[10] = system: voltage-gated (KV) potassium channel; assay: SafetyScreen44 panel; type: binding, rat; conditions: 10 µM
Method: as §1, §2, §3

T1 sequence (P28223 whole entry): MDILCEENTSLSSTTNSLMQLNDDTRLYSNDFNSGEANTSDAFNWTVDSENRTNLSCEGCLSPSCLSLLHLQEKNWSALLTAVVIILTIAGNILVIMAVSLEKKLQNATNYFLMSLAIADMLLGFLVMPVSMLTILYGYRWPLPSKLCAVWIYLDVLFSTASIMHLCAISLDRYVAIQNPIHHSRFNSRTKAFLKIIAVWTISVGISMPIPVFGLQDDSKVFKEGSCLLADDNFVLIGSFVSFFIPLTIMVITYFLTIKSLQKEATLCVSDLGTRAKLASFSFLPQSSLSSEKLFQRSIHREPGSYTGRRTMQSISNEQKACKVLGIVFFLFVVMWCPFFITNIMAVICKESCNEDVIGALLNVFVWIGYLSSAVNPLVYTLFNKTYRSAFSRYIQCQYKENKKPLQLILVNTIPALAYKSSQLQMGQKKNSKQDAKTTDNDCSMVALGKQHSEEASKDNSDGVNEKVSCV

Row | SMILES | binding inhibition ([1]; 10 µM) | binding inhibition ([2]; 10 µM) | binding inhibition ([3]; 10 µM) | binding inhibition ([4]; 10 µM) | binding inhibition ([5]; 10 µM) | binding inhibition ([6]; 10 µM) | binding inhibition ([7]; 10 µM) | chloroquine-induced scratching behavior ([8]; 15 mg kg−1 p.o.) | chloroquine-induced scratching behavior ([8]; 3, 10, or 30 mg kg−1 i.p. 15 min prior to s.c. chloroquine, scratching bouts over 30 min) | increase in Tm [9] [°C] | melting temperature Tm of Slack [9] [°C] | binding [10] | inhibition at 10 µM ([1]; read-out: binding inhibition) [%] | inhibition at 10 µM ([2]; read-out: binding inhibition) [%] | inhibition at 10 µM ([3]; read-out: binding inhibition) [%] | inhibition at 10 µM ([4]; read-out: binding inhibition) [%] | inhibition at 10 µM ([5]; read-out: binding inhibition) [%] | inhibition at 10 µM ([6]; read-out: binding inhibition) [%] | inhibition at 10 µM ([7]; read-out: binding inhibition) [%] | chloroquine-induced scratching behavior ([8]; wildtype mice, systemic low dose, preliminary experiments)
1 | O=C(O)COCCN1CCN(C2=Nc3ccccc3Oc3ccc(Cl)cc32)CC1 [Compound 6] | substantial binding | substantial binding | substantial binding | substantial binding | substantial binding | substantial binding | substantial binding | profound antipruritic effect | ameliorated scratching behavior in a dose‐dependent manner | 9.3 | 39.3 ± 0.9 | did not measurably bind |  |  |  |  |  |  |  | 
2 | CN1CCN(C2=Nc3ccccc3Oc3ccc(Cl)cc32)CC1 [Loxapine, reference compound] |  |  |  |  |  |  |  |  |  | 7.8 | 37.8 ± 1.3 | did not measurably bind | > 50 | > 50 | > 50 | > 50 | > 50 | > 50 | > 50 | considerably alleviated
